{"source": "patent US20170247693A1", "about": "(priority 2016, published 2017)", "test_system": "HepG2 cells", "details": "normoxia"}
{"smiles": "COc1cccc2c1C(=O)c1c(O)c3c(c(O)c1C2=O)C[C@@](O)(C(=O)CO)C[C@@H]3O[C@H]1C[C@H](N)[C@H](O)[C@H](C)O1", "note": "[DOX, Doxorubicin]", "values": [{"measurement": "minimal concentration that diminished the growth of the treated cells", "setting": "HepG2", "value": 1, "unit": "μm"}, {"measurement": "decrease of cell viability", "setting": "HepG2 infected with vACE-NT, 72 h after administering DOX (1 μm)", "value": 27, "unit": "%"}]}
